Source: the NIST ThermoML archive (doi:10.1021/je050389b)
± gives the expanded uncertainty stated by the source.

What was measured:
[1] = Liquid
[2] = xn = mol fraction of the nth substance listed; details: Liquid, x2 = 0

Compound | viscosity ([1]; 288.15 K, 100.5 kPa) | mass density ([1]; 288.15 K, 101 kPa) | viscosity ([1]; 298.15 K, 100.5 kPa) | mass density ([1]; 298.15 K, 101 kPa) | viscosity ([1]; 308.15 K, 100.5 kPa) | mass density ([1]; 308.15 K, 101 kPa) | viscosity ([1]; 318.15 K, 100.5 kPa) | mass density ([1]; 318.15 K, 101 kPa) | viscosity ([2]; 288.15 K, 100.5 kPa) | viscosity ([2]; 298.15 K, 100.5 kPa) | viscosity ([2]; 308.15 K, 100.5 kPa) | viscosity ([2]; 318.15 K, 100.5 kPa) | mass density ([2]; 288.15 K, 101 kPa) | mass density ([2]; 298.15 K, 101 kPa) | mass density ([2]; 308.15 K, 101 kPa) | mass density ([2]; 318.15 K, 101 kPa) | other results
CCCC(=O)OCCC(C)C [3-methylbutyl butanoate] | 1.317 ± 0.019 mPa·s | 867.72 ± 0.32 kg/m3 | 1.111 ± 0.018 mPa·s | 858.69 ± 0.32 kg/m3 | 0.952 ± 0.016 mPa·s | 849.62 ± 0.32 kg/m3 | 0.827 ± 0.016 mPa·s | 840.55 ± 0.32 kg/m3 | – | – | – | – | – | – | – | – | –
CC(=O)OCCC(C)C [3-methylbutyl ethanoate] | 0.94 ± 0.016 mPa·s | – | 0.804 ± 0.015 mPa·s | – | 0.704 ± 0.015 mPa·s | – | 0.627 ± 0.014 mPa·s | – | – | – | – | – | – | – | – | – | mass density ([1]; 288.15 K, 100.5 kPa): 877.72 ± 0.36 kg/m3; mass density ([1]; 298.15 K, 100.5 kPa): 867.91 ± 0.36 kg/m3; mass density ([1]; 308.15 K, 100.5 kPa): 858.07 ± 0.36 kg/m3; mass density ([1]; 318.15 K, 100.5 kPa): 848.17 ± 0.36 kg/m3
CCO [ethanol] | 1.337 ± 0.019 mPa·s | 793.6 ± 0.23 kg/m3 | 1.105 ± 0.017 mPa·s | 785 ± 0.24 kg/m3 | 0.921 ± 0.016 mPa·s | 776.31 ± 0.24 kg/m3 | 0.771 ± 0.015 mPa·s | 767.44 ± 0.25 kg/m3 | – | – | – | – | – | – | – | – | mass density ([1]; 288.15 K, 100.5 kPa): 793.6 ± 0.23 kg/m3; mass density ([1]; 298.15 K, 100.5 kPa): 785 ± 0.24 kg/m3; mass density ([1]; 308.15 K, 100.5 kPa): 776.31 ± 0.24 kg/m3; mass density ([1]; 318.15 K, 100.5 kPa): 767.44 ± 0.25 kg/m3
CCO [ethanol] + CC(=O)OCCC(C)C | – | – | – | – | – | – | – | – | 1.337 ± 0.019 mPa·s | 1.105 ± 0.017 mPa·s | 0.921 ± 0.016 mPa·s | 0.771 ± 0.015 mPa·s | – | – | – | – | mass density ([2]; 288.15 K, 100.5 kPa): 793.6 ± 0.23 kg/m3; mass density ([2]; 298.15 K, 100.5 kPa): 785 ± 0.24 kg/m3; mass density ([2]; 308.15 K, 100.5 kPa): 776.31 ± 0.24 kg/m3; mass density ([2]; 318.15 K, 100.5 kPa): 767.44 ± 0.25 kg/m3
CCO [ethanol] + CCCC(=O)OCCC(C)C | – | – | – | – | – | – | – | – | 1.337 ± 0.019 mPa·s | 1.105 ± 0.017 mPa·s | 0.921 ± 0.016 mPa·s | 0.771 ± 0.015 mPa·s | 793.6 ± 0.23 kg/m3 | 785 ± 0.24 kg/m3 | 776.31 ± 0.24 kg/m3 | 767.44 ± 0.25 kg/m3 | –
CCO [ethanol] + CCCCCC(=O)OCC | – | – | – | – | – | – | – | – | 1.337 ± 0.019 mPa·s | 1.105 ± 0.017 mPa·s | 0.921 ± 0.016 mPa·s | 0.771 ± 0.015 mPa·s | 793.6 ± 0.23 kg/m3 | 785 ± 0.24 kg/m3 | 776.31 ± 0.24 kg/m3 | 767.44 ± 0.25 kg/m3 | –
CCO [ethanol] + CCCCCCCC(=O)OCC | – | – | – | – | – | – | – | – | 1.337 ± 0.019 mPa·s | 1.105 ± 0.017 mPa·s | 0.921 ± 0.016 mPa·s | 0.771 ± 0.015 mPa·s | 793.6 ± 0.23 kg/m3 | 785 ± 0.24 kg/m3 | 776.31 ± 0.24 kg/m3 | 767.44 ± 0.25 kg/m3 | –
CCO [ethanol] + CCOC(=O)Cc1ccccc1 | – | – | – | – | – | – | – | – | 1.337 ± 0.019 mPa·s | 1.105 ± 0.017 mPa·s | 0.921 ± 0.016 mPa·s | 0.771 ± 0.015 mPa·s | 793.6 ± 0.23 kg/m3 | 785 ± 0.24 kg/m3 | 776.31 ± 0.24 kg/m3 | 767.44 ± 0.25 kg/m3 | –
CCO [ethanol] + CCOC(=O)c1ccccc1 | – | – | – | – | – | – | – | – | 1.337 ± 0.019 mPa·s | 1.105 ± 0.017 mPa·s | 0.921 ± 0.016 mPa·s | 0.771 ± 0.015 mPa·s | 793.6 ± 0.23 kg/m3 | 785 ± 0.24 kg/m3 | 776.31 ± 0.24 kg/m3 | 767.44 ± 0.25 kg/m3 | –
CCOC(=O)c1ccccc1 [ethyl benzoate] | 2.444 ± 0.028 mPa·s | 1050.78 ± 0.17 kg/m3 | 1.971 ± 0.024 mPa·s | 1041.42 ± 0.17 kg/m3 | 1.624 ± 0.021 mPa·s | 1032.07 ± 0.17 kg/m3 | 1.368 ± 0.019 mPa·s | 1022.73 ± 0.16 kg/m3 | – | – | – | – | – | – | – | – | –
CCCCCC(=O)OCC [ethyl hexanoate] | 1.102 ± 0.017 mPa·s | 875.64 ± 0.22 kg/m3 | 0.94 ± 0.016 mPa·s | 866.29 ± 0.22 kg/m3 | 0.814 ± 0.015 mPa·s | 856.91 ± 0.23 kg/m3 | 0.711 ± 0.015 mPa·s | 847.5 ± 0.23 kg/m3 | – | – | – | – | – | – | – | – | –
CCCCCCCC(=O)OCC [ethyl octanoate] | 1.697 ± 0.022 mPa·s | 870.79 ± 0.28 kg/m3 | 1.411 ± 0.02 mPa·s | 862.15 ± 0.29 kg/m3 | 1.193 ± 0.018 mPa·s | 853.52 ± 0.29 kg/m3 | 1.027 ± 0.017 mPa·s | 844.87 ± 0.29 kg/m3 | – | – | – | – | – | – | – | – | –
CCOC(=O)Cc1ccccc1 [ethyl phenylacetate] | 3.002 ± 0.035 mPa·s | 1036.35 ± 0.34 kg/m3 | 2.384 ± 0.028 mPa·s | 1026.96 ± 0.33 kg/m3 | 1.948 ± 0.024 mPa·s | 1017.6 ± 0.33 kg/m3 | 1.624 ± 0.022 mPa·s | 1008.26 ± 0.33 kg/m3 | – | – | – | – | – | – | – | – | –
